Numbers after ± are expanded uncertainties.
Key:
[1] = refractive index (Na D-line) (dimensionless); xn = mol fraction of the nth substance listed; conditions: 298.15 K, 101 kPa, Liquid, Standard Abbe refractometry
[2] = xn = mol fraction of the nth substance listed; conditions: 298.15 K, 101 kPa, Liquid; for viscosity: Capillary tube (Ostwald / Ubbelohde) method; for mass density: Vibrating tube method
[3] = refractive index (Na D-line) (dimensionless); conditions: 298.15 K; 101.33 kPa; Liquid; Standard Abbe refractometry
[4] = 298.15 K, 101 kPa, Liquid; for viscosity: Capillary tube (Ostwald / Ubbelohde) method; for mass density: Vibrating tube method

CCCCn1cc[n+](C)c1C.F[B-](F)(F)F [1-butyl-2,3-dimethylimidazolium tetrafluoroborate] + O
Conditions | mass density, [2] [kg/m3] | refractive index, [1] | viscosity, [2] [mPa·s]
x1 = 0.0085 | 1012.56 ± 0.095 | – | 1.06 ± 0.01
x1 = 0.0397 | 1053.33 ± 0.16 | 1.362 ± 0.002 | 1.83 ± 0.02
x1 = 0.1068 | 1100.33 ± 0.3 | 1.387 ± 0.002 | 3.96 ± 0.04
x1 = 0.1997 | 1132.18 ± 0.58 | 1.404 ± 0.002 | 7.34 ± 0.08
x1 = 0.2577 | 1144.22 ± 0.81 | 1.411 ± 0.002 | 10.07 ± 0.11
x1 = 0.3222 | 1154.04 ± 1.1 | 1.417 ± 0.002 | 12.62 ± 0.16
x1 = 0.4983 | – | 1.423 ± 0.002 | –
x1 = 0.7058 | 1182.14 ± 4 | 1.429 ± 0.002 | 94.63 ± 2.6
x1 = 0.7325 | 1183.22 ± 4.3 | 1.43 ± 0.002 | 104.97 ± 3.1
x1 = 0.8659 | 1187.78 ± 5.9 | 1.432 ± 0.002 | 214.82 ± 9.5
x1 = 1 | 1191.2 ± 7.7 | 1.433 ± 0.002 | 455.81 ± 29

O [water] + CCCCn1cc[n+](C)c1C.F[B-](F)(F)F
x2 = 0
Conditions | refractive index | viscosity [mPa·s]
[1] | 1.333 ± 0.002 | –
[2] | – | 0.89 ± 0.01

CCCCn1cc[n+](C)c1.F[B-](F)(F)F [1-butyl-3-methylimidazolium tetrafluoroborate]
Conditions | mass density [kg/m3] | refractive index | viscosity [mPa·s]
[3] | – | 1.422 ± 0.002 | –
[4] | 1200.3 ± 7.8 | – | 100.66 ± 3.3

O [water] + CCCCn1cc[n+](C)c1.F[B-](F)(F)F
x2 = 0
Conditions | refractive index | viscosity [mPa·s]
[1] | 1.333 ± 0.002 | –
[2] | – | 0.89 ± 0.01

CCCCn1cc[n+](C)c1.F[B-](F)(F)F [1-butyl-3-methylimidazolium tetrafluoroborate] + O
Conditions | mass density, [2] [kg/m3] | refractive index, [1] | viscosity, [2] [mPa·s]
x1 = 0.036 | 1050.07 ± 0.15 | – | 1.51 ± 0.01
x1 = 0.044 | 1058.55 ± 0.17 | 1.36 ± 0.002 | 1.67 ± 0.02
x1 = 0.1267 | 1112.51 ± 0.36 | 1.384 ± 0.002 | 3.22 ± 0.03
x1 = 0.3134 | 1158.59 ± 1.1 | 1.405 ± 0.002 | 7.2 ± 0.09
x1 = 0.4984 | 1177.85 ± 2.2 | 1.412 ± 0.002 | 13.63 ± 0.22
x1 = 0.5802 | 1183.49 ± 2.9 | 1.415 ± 0.002 | 19.25 ± 0.34
x1 = 0.7488 | – | 1.418 ± 0.002 | –
x1 = 0.8089 | 1194.47 ± 5.3 | 1.419 ± 0.002 | 46.55 ± 1.1
x1 = 0.9719 | 1199.54 ± 7.4 | 1.421 ± 0.002 | 88.87 ± 2.7
x1 = 1 | 1200.3 ± 7.8 | 1.422 ± 0.002 | 100.66 ± 3.3

CCCCn1cc[n+](C)c1C.F[B-](F)(F)F [1-butyl-2,3-dimethylimidazolium tetrafluoroborate]
Conditions | mass density [kg/m3] | refractive index | viscosity [mPa·s]
[3] | – | 1.433 ± 0.002 | –
[4] | 1191.2 ± 7.7 | – | 455.81 ± 29
